Experimental data published in patent publication US11634447B2 (priority 2012, dated 2023).

System: bacterial strain LF82 binding to the glycoprotein BSA-(Mannose)3
Test: Bacterial Binding Assay (BBA)
Format: cell-based, Escherichia coli
Conditions: read-out: Bacterial Binding Assay IC50, LF82/Luciferase strain binding to BSA-(Man)3 coated plates, luminescence
Source text: The purpose of the Bacterial Binding Assay (BBA) is to determine the inhibition activity of
selective FimH antagonists on the bacterial strain LF82 binding to the glycoprotein BSA-(Mannose)3.
Below is a list of the Materials used to run the BBA are described below. • 1. LB broth: Supplier: Gibco, #10855 • 2. D-PBS: Supplier: Wisent, #311-425-CL • 3. LB agar plates • 4. 96-well black plate (high binding): Supplier: Costar, #3925 • 5. TopSeal™-A adhesive sealing films; Supplier PerkinElmer, #6005185 • 6. Carbonate-bicarbonate buffer pH 9.6 tablets, Supplier: Medicago, #09-8922-24 • 7. Water, Supplier: Gibco, #15230-162 • 8. Bovine serum albumin (BSA): Supplier: Sigma, #A-7888 • 9. (Man)3-BSA (α1-3, α1-6 Mannotriose-BSA, 1 mg), V-Labs, #NGP1336, lot #HGDX37-169-1 • 10. Tween 20: Supplier: Sigma, #P9416 • 11. Bright-Glo Luciferase Assay System: Supplier: Promega, #E2610 • 12. LF82/Luciferase strain: Invasive ability of an Escherichia coli strain isolated from the ileal mucosa of a patient with Crohn ? disease. Boudeau J, Glasser A L, Masseret E, Joly B, Darfeuille-Michaud A, Infect Immun. 1999, 67(9), 4499-509
Solutions and buffers used to run the BBA are described below. • 1. 0.04M carbonate-bicarbonate buffer (coating buffer) • 2. 40 μg/mL BSA-(Man)3: Dissolve 1 mg of (Man)3-BSA in 25 mL of water. • 3. 4000 μg/mL BSA • 4. 40 μg/mL BSA • 5. 1 μg/mL BSA-(Man)3: 150 μL of 40 μg/mL BSA-(Man)3+5.85 mL of 40 μg/mL BSA • 6. 0.5 μg/mL BSA-(Man)3 in 0.02M carbonate-bicarbonate buffer. • 7. 20 μg/mL BSA in 0.02M carbonate-bicarbonate buffer • 8. Blocking buffer (2% BSA/DPBS): 1 g of BSA in 50 mL D-PBS • 9. 2× binding buffer (0.2% BSA/D-PBS): 5 mL of blocking buffer+45 mL D-PBS. • 10. Washing buffer (D-PBS/0.01% Tween 20): 10 μL of Tween 20 in 100 mL D-PBS. • 11. 1× Bright-Glo Luciferase substrate: Dilute 1:1 the Bright-Glo Luciferase Assay System with D-PBS The experimental protocol to run the BBA is described below.
Overnight culture of LF82/Luciferase strain: Into two Falcon 50 mL tubes, add 20 mL of LB+20 μL of 50 mg/mL Kanamycin and inoculate with a loop from glycerol stock of the LF82/Luciferase strain. Incubate overnight at 37° C. with no shaking.
Glycoprotein coating of 96-well plates: Add 100 μL/well of 0.5-2 μg/mL BSA-(Man)3. 20 μg/mL BSA is used as the control background. Seal plate using an adhesive sealing film and incubate overnight at room temperature. Wash the 96-well plate three times with 150 μL/well of D-PBS, add 170 μL/well of blocking solution and incubate 45 min (minimum) at room temperature.
Preparation of bacterial suspension: Mix the two cultures tubes (40 mL) and perform a 1:10 dilution in LB (900 μl LB+100 μl culture. Measure optical density (OD) of the bacterial cultures. OD1 ˜5×10^8 cells/mL. Centrifuge LF82 culture for 20 min at 3500 rpm at room temperature. Re-suspend bacterial pellet in D-PBS and centrifuge again for 20 min at 3500 rpm. Re-suspend bacterial pellet in D-PBS to obtain a bacterial concentration of 2×10^9 bacteria/mL. Dilute 1/10 in D-PBS to obtain a final bacterial concentration of 2×10^8 bacteria/mL (=107 bacteria/50 μL). Perform 1/10 serial dilutions in LB of each bacterial suspension, plate 10 μL of dilutions on LB agar plates (final dilutions of 10^−7) and incubate overnight at 37° C. and count CFUs to determine the actual bacteria density in the assay.
Bacterial binding assay: Add 147 μL 2× binding buffer to compound plate (containing 3 μL of compound). After blocking step is performed (at least 45 min), wash plates three times with 200 μL/well of D-PBS. With a 100 μL multichannel manual pipettor, add 50 µL/well of compound diluted in 2× binding buffer. With a 100 μL multichannel manual pipettor, add 50 μL/well of bacterial suspension. Agitate at slow speed for 1 min and incubate 40-75 min at room temperature. Wash 5 times with 150 μL/well of washing buffer and then once with D-PBS. Add 100 μL/well of 1× Bright-Glo Luciferase substrate. […]

Row | Structure (SMILES) | IC50
1 | OC[C@H]1O[C@H](C#Cc2ccc(C#C[C@H]3O[C@H](CO)[C@@H](O)[C@H](O)[C@@H]3O)c(-c3ccccc3)c2)[C@@H](O)[C@@H](O)[C@@H]1O [Compound 77, (2R,3S,4R,5S,6R)-2-(hydroxymethyl)-6-[2-[3-phenyl-4-[2-[(2R,3S,4R,5S,6R)-3,4,5-trihydroxy-6-(hydroxymethyl)tetrahydropyran-2-yl]ethynyl]phenyl]ethynyl]tetrahydropyran-3,4,5-triol] | 4 nM
2 | OC[C@H]1O[C@H](C#Cc2ccc3c(c2)C(O)(C2CC2)c2cc(C#C[C@H]4O[C@H](CO)[C@@H](O)[C@H](O)[C@@H]4O)ccc2-3)[C@@H](O)[C@@H](O)[C@@H]1O (stereo partly drawn) [Compound 114, (2R,3S,4R,5S,6R)-2-[2-[9-cyclopropyl-9-hydroxy-7-[2-[(2R,3S,4R,5S,6R)-3,4,5-trihydroxy-6-(hydroxymethyl)tetrahydropyran-2-yl]ethynyl]fluoren-2-yl]ethynyl]-6-(hydroxymethyl)tetrahydropyran-3,4,5-triol] | 1.2 nM
3 | Cc1cc(N2CC(=O)N(c3ccc([C@H]4O[C@H](CO)[C@@H](O)[C@H](O)[C@@H]4O)c(C)c3)CC2=O)ccc1[C@H]1O[C@H](CO)[C@@H](O)[C@H](O)[C@@H]1O [Compound 172, 1,4-bis[3-methyl-4-[(2R,3S,4R,5S,6R)-3,4,5-trihydroxy-6-(hydroxymethyl)tetrahydropyran-2-yl]phenyl]piperazine-2,5-dione] | 188 nM
4 | OC[C@H]1O[C@H](C#Cc2ccc(C#C[C@H]3O[C@H](CO)[C@@H](O)[C@H](O)[C@@H]3O)s2)[C@@H](O)[C@@H](O)[C@@H]1O [Compound 138] | 31 nM
5 | CC1(C(=O)c2c(C#C[C@H]3O[C@H](CO)[C@@H](O)[C@H](O)[C@@H]3O)ccc3c2C2(CCNCC2)c2cc(C#C[C@H]4O[C@H](CO)[C@@H](O)[C@H](O)[C@@H]4O)ccc2-3)CC1 [Compound 225, [2,7-bis[2-[(2R,3S,4R,5S,6R)-3,4,5-trihydroxy-6-(hydroxymethyl)tetrahydropyran-2-yl]ethynyl]spiro[fluorene-9,4piperidine]-1yl]-(1-methylcyclopropyl)methanone] | 1.2 nM
6 | OC[C@H]1O[C@H](C#Cc2ccc(C#C[C@H]3O[C@H](CO)[C@@H](O)[C@H](O)[C@@H]3O)c(Cl)c2)[C@@H](O)[C@@H](O)[C@@H]1O [Compound 102, (2R,3S,4R,5S,6R)-2-[2-[3-chloro-4-[2-[(2R,3S,4R,5S,6R)-3,4,5-trihydroxy-6-(hydroxymethyl)tetrahydropyran-2-yl]ethynyl]phenyl]ethynyl]-6-(hydroxymethyl)tetrahydropyran-3,4,5-triol] | 24 nM
7 | CC(C)CC1(O)c2cc(C#C[C@H]3O[C@H](CO)[C@@H](O)[C@H](O)[C@@H]3O)ccc2-c2ccc(C#C[C@H]3O[C@H](CO)[C@@H](O)[C@H](O)[C@@H]3O)cc21 [Compound 169, (2R,3S,4R,5S,6R)-2-[2-[9-hydroxy-9-isobutyl-7-[2-[(2R,3S,4R,5S,6R)-3,4,5-trihydroxy-6-(hydroxymethyl)tetrahydropyran-2-yl]ethynyl]fluoren-2-yl]ethynyl]-6-(hydroxymethyl)tetrahydropyran-3,4,5-triol] | 0.66 nM
8 | O=C(Cn1c2cc(C#C[C@H]3O[C@H](CO)[C@@H](O)[C@H](O)[C@@H]3O)ccc2c2ccc(C#C[C@H]3O[C@H](CO)[C@@H](O)[C@H](O)[C@@H]3O)cc21)NCCN1CCOCC1 [Compound 178, 2-[2,7-bis[2-[(2R,3S,4R,5S,6R)-3,4,5-trihydroxy-6-(hydroxymethyl)tetrahydropyran-2-yl]ethynyl]carbazol-9-yl]-N-(2-morpholinoethyl)acetamide] | 3.1 nM
9 | O=C(c1ccno1)c1c(C#C[C@H]2O[C@H](CO)[C@@H](O)[C@H](O)[C@@H]2O)ccc2c1C1(CCNCC1)c1cc(C#C[C@H]3O[C@H](CO)[C@@H](O)[C@H](O)[C@@H]3O)ccc1-2 [Compound 232, [2,7-bis[2-[(2R,3S,4R,5S,6R)-3,4,5-trihydroxy-6-(hydroxymethyl)tetrahydropyran-2-yl]ethynyl]spiro[fluorene-9,4piperidine]-1yl]-isoxazol-5-yl-methanone] | 0.04 nM
10 | O=C(O)CCC1(CCO)c2cc(C#C[C@H]3O[C@H](CO)[C@@H](O)[C@H](O)[C@@H]3O)ccc2-c2ccc(C#C[C@H]3O[C@H](CO)[C@@H](O)[C@H](O)[C@@H]3O)cc21 [Compound 219, 3-[9-(2-hydroxyethyl)-2,7-bis[2-[(2R,3S,4R,5S,6R)-3,4,5-trihydroxy-6-(hydroxymethyl)tetrahydropyran-2-yl]ethynyl]fluoren-9-yl]propanoic acid] | 3.8 nM
11 | OCCn1c2cc(C#C[C@H]3O[C@H](CO)[C@@H](O)[C@H](O)[C@@H]3O)ccc2c2ccc(C#C[C@H]3O[C@H](CO)[C@@H](O)[C@H](O)[C@@H]3O)cc21 [Compound 182, (2R,3 S,4R,5S,6R)-2-[2-[9-(2-Hydroxyethyl)-7-[2-[(2R,3 S,4R,5S,6R)-3,4,5-trihydroxy-6-(hydroxymethyl)tetrahydropyran-2-yl]ethynyl]carbazol-2-yl]ethynyl]-6-(hydroxymethyl)tetrahydropyran-3,4,5-triol] | 1.4 nM
12 | OC[C@H]1O[C@H](C#Cc2ccc3[nH]c4ccc(C#C[C@H]5O[C@H](CO)[C@@H](O)[C@H](O)[C@@H]5O)cc4c3c2)[C@@H](O)[C@@H](O)[C@@H]1O [Compound 108, (2R,3S,4R,5S,6R)-2-(hydroxymethyl)-6-[2-[6-[2-[(2R,3S,4R,5S,6R)-3,4,5-trihydroxy-6-(hydroxymethyl)tetrahydropyran-2-yl]ethynyl]-9H-carbazol-3-yl]ethynyl]tetrahydropyran-3,4,5-triol] | 28 nM
13 | OC[C@H]1O[C@H](c2ccc(C#C[C@H]3O[C@H](CO)[C@@H](O)[C@H](O)[C@@H]3O)cc2)[C@@H](O)[C@@H](O)[C@@H]1O [Compound 141, (2R,3S,4R,5S,6R)-2-(hydroxymethyl)-6-[2-[4-[(2R,3S,4R,5S,6R)-3,4,5-trihydroxy-6-(hydroxymethyl)tetrahydropyran-2-yl]phenyl]ethynyl]tetrahydropyran-3,4,5-triol] | 340 nM
14 | OC[C@H]1O[C@H](C#Cc2ccc3nc(C#C[C@H]4O[C@H](CO)[C@@H](O)[C@H](O)[C@@H]4O)ccc3c2)[C@@H](O)[C@@H](O)[C@@H]1O [Compound 126, (2R,3S,4R,5S,6R)-2-(hydroxymethyl)-6-[2-[2-[2-[(2R,3S,4R,5S,6R)-3,4,5-trihydroxy-6-(hydroxymethyl)tetrahydropyran-2-yl]ethynyl]-6-quinolyl]ethynyl]tetrahydropyran-3,4,5-triol] | 124 nM
15 | CC1(O)CCC2(CC1)c1cc(C#C[C@H]3O[C@H](CO)[C@@H](O)[C@H](O)[C@@H]3O)ccc1-c1ccc(C#C[C@H]3O[C@H](CO)[C@@H](O)[C@H](O)[C@@H]3O)cc12 [Compound 204] | 0.8 nM
